Measured values reported in patent US12220466B2, “Pharmaceutical formulation” (Cutting Edge Technology, LLC, priority 2016, dated 2025).

Key:
pocket epithelium [1] = details: cited from earlier work
pocket epithelium [2] = details: monkey, in vivo; cited from earlier work
[3] = tested on: gram-negative anaerobes and spirochetes; details: cited from earlier work
[4] = tested on: spirochetes and motile rods in subgingival plaques; details: up to 12 weeks; cited from earlier work
periodontitis = assay: Extensive in vivo administration of viscous tetracycline and 10% carbamide peroxide gel with mechanical debridement (Phase I-III)
Experimental: Each of the subjects had up to 6 or more recorded pocket sites, which can have up to 32 teeth and other parameters of periodontal disease recordings as well as health recordings in their patient records.
During Phase I treatments of periodontitis, a gel solution including 10% carbamide peroxide was applied directly to the periodontal pocket and pocket areas immediately followed by or preceded by 30-600 mg or more of pure topical tetracycline in powder or paste form, also applied directly to the pocket and pocket treatment areas together with the gel solution. The gel solution and the tetracycline were also applied to teeth directly. Tetracycline was added at intervals throughout the treatment. Treatment was performed on pockets from 3 mm up to 10 mm and more.
When pocket tissue was swollen, the 10% carbamide peroxide penetrated the deep pocket under the gum. The 10% carbamide peroxide was in the form of a viscous gel and was applied to the wound site or pocket using a periodontal probe, for example, or using a curet or scaler. For example, one or two drops from a squeeze-bottle applicator was applied to the end of end of a curette tip or scaler or was applied with a periodontal pocket measuring probe. The peroxide gel was also applied under artificial teeth and implants, for example under restorative bridges such as pontic areas, whether with implants or natural teeth. […]

Row | Compound | time to restoration of epithelial lining (pocket epithelium [1]; in vivo) [days] | removal of pocket epithelium (histological) (pocket epithelium [1]; one minute application, neutralization, six curette strokes) | time to nearly complete healing without irreparable damage (pocket epithelium [2]) [days] | time to reformation of epithelial lining (pocket epithelium [2]) [days] | time to removal of most of the necrotic layer (pocket epithelium [2]) [h] | duration of the decrease ([3]; in vivo) [days] | number of gram-negative anaerobes and spirochetes ([3]; patients under 18 years, no scaling and root planing) | percentages of spirochetes and motile rods versus scaling and root planing alone [4] | in office patient complaints (periodontitis; in vivo) | allergic reaction with topical use (periodontitis; patient population)
1 | OCl [sodium hypochlorite] | 7 | complete removal of pocket epithelium with normal healing | 11 | 3 | 16 | 30 to 90 | significant decrease | no difference at any time between therapies | – | –
2 | CN(C)[C@@H]1C(O)=C(C(N)=O)C(=O)[C@@]2(O)C(O)=C3C(=O)c4c(O)cccc4[C@@](C)(O)[C@H]3C[C@@H]12 [tetracycline] | – | – | – | – | – | – | – | – | to taste, not pain | No true allergic reaction
